Experimental findings from patent publication US4948880A, “Anthracycline derivatives having cytostatic activity” (Behringwerke Aktiengesellschaft, priority 1986, dated 1990) are described below.

In brackets after ≈: the same amount, converted by molar mass. Structures can show the parent of a compound that is named as a salt. Where two headings read alike, the source gives them in different places. A value given as a limit tells only on which side of the number the result lay.

The subject of this experiment is mouse L1210 leukemia cells. As to the kind of experiment: Formation of L1210 leukemia cell colonies in soft agar (cytostatic activity). In kind it is cell-based. As to conditions: colonies > 60 μm, % of untreated control; for IC50: Mus musculus. Here is the method: The cytostatic activity of the compounds according to the invention have been tested using mouse L1210 leukemia cells. Use was made for this by the formation of L1210 leukemia cell colonies in agar plates. This method is used to detect the effect of the test substances on the growth behavior of the cells over 1 hour or over several generations. In this connection, with a cell cycle time of 10-12 hours, about 14 consecutive generations are observed in a 7-day duration of the test. In this test, the substances having cytostatic activity according to the invention bring about a reduction, compared with an untreated control sample, in the number of colonies which is to be observed.
Procedure for Determining the Formation of L1210 Leukemia Cell Colonies in Soft Agar
500 leukemia cells per plate were incubated with various concentrations of the test substance at 37° C. for 1 hour. These cells were then washed twice with McCoy 5A medium, 0.3% agar was added, and finally the mixture was poured into Petri dishes. Controls were incubated only with fresh medium. In place of the incubation for one hour, in some cases various concentrations and test substances were mixed with the upper agar layer in order in this way to achieve continuous exposure of the cells throughout the incubation time. After the agar had solidified, the plates were incubated in an incubator at 37° C. for 7 days (5% by volume CO2, 95% relative atmospheric humidity). Thereafter the number of colonies with a diameter of more than 60 μm which had formed was counted. The results have been stated as the number of colonies in treated agar plates as a percentage of the untreated control. The dose-effect graph obtained in this way was used to determine the IC50 as a measure of the activity of the substance. The results for the compounds described here are compiled in Table 1 which follows, comparing with adriamycin.

Setting [1] is: L1210, 168 h, read-out: Continuous incubation IC50, continuous exposure, test substance mixed with upper agar layer, 7 days, 37° C.
[2] abbreviates: L1210, read-out: 1 h incubation IC50, 1 hour incubation with test substance at 37° C., then washed, 7 days in agar.
Where [3] appears, read: L1210, 168 h, continuous exposure, test substance mixed with upper agar layer, 7 days, 37° C., read-out: Continuous incubation IC50.
[4] abbreviates: L1210, 1 hour incubation with test substance at 37° C., then washed, 7 days in agar, read-out: 1 h incubation IC50.

With `CC[C@@]1(O)C[C@H](O[C@H]2C[C@H](NC)[C@H](O)[C@H](C)O2)c2c(O)c3c(c(O)c2[C@H]1O)C(=O)c1cccc(O)c1C3=O` [compound 1, 7-O-(3'-N-Methyl-α-L-daunosaminyl)-β-rhodomycinone], the IC50 came to 0.02 µg/mL (≈ 0.0378 µM) under setting [1] and 0.038 µg/mL (≈ 0.0718 µM) under setting [2]. `CC[C@@]1(O)C[C@H](O[C@H]2C[C@H](NC)[C@H](O)[C@H](C)O2)c2c(O)c3c(c(O)c2[C@H]1O)C(=O)c1cccc(O)c1C3=O` [compound 2, 7-O-(3'-N-Methyl-α-L-daunosaminyl)-β-rhodomycinone hydrochloride]: the “1 h incubation IC50” value (1 hour incubation with test substance at 37° C., then washed, 7 days in agar, hydrochloride) came out at 0.026 µg/mL. `CC[C@@]1(O)C[C@H](O[C@H]2C[C@H](NC)[C@H](O)[C@H](C)O2)c2c(O)c3c(c(O)c2[C@H]1O)C(=O)c1c(O)ccc(O)c1C3=O` [compound 3, 7-O-(3'-N-Methyl-α-L-daunosaminyl)-β-isorhodomycinone]: the IC50 by setting is: under setting [3], 0.11 µg/mL (≈ 0.202 µM); under setting [4], 0.13 µg/mL (≈ 0.238 µM). In the same order, the values of `CC[C@@]1(O)C[C@H](O[C@H]2C[C@H](NC)[C@H](O)[C@H](C)O2)c2c(O)c3c(c(O)c2[C@H]1C(=O)OC)C(=O)c1c(O)ccc(O)c1C3=O` [compound 5, 7-O-(3'-N-Methyl-α-L-daunosaminyl)-ε-isorhodomycinone] are 0.28 µg/mL (≈ 0.477 µM) and greater than 1 µg/mL. For the compound `CC[C@@]1(O)C[C@H](O[C@H]2C[C@H](N(C)C=O)[C@H](O)[C@H](C)O2)c2c(O)c3c(c(O)c2[C@H]1O)C(=O)c1cccc(O)c1C3=O` [compound 6, 7-O-(3'-N-Formyl-3'-N-methyl-α-L-daunosaminyl)-β-rhodomycinone], the IC50 was found to be 0.044 µg/mL (≈ 0.0789 µM) under setting [1] and 0.15 µg/mL (≈ 0.269 µM) under setting [2]. In the case of `CC[C@@]1(O)C[C@H](O[C@H]2C[C@H](N(C)CC#N)[C@H](O)[C@H](C)O2)c2c(O)c3c(c(O)c2[C@H]1O)C(=O)c1cccc(O)c1C3=O` [compound 7, 7-O-(3'-N-Cyanomethyl-3'-N-methyl-α-L-daunosaminyl)-β-rhodomycinone], the IC50 reads like this: under setting [1], 0.013 µg/mL (≈ 0.0229 µM); under setting [2], 0.021 µg/mL (≈ 0.0369 µM).

With `CC[C@@]1(O)C[C@H](O[C@H]2C[C@H](N(C)CC#N)[C@H](O)[C@H](C)O2)c2c(O)c3c(c(O)c2[C@H]1O)C(=O)c1c(O)ccc(O)c1C3=O` [compound 8, 7-O-(3'-N-Cyanomethyl-3'-N-methyl-α-L-daunosaminyl)-β-isorhodomycinone], the IC50 reads like this: under setting [1], 0.042 µg/mL (≈ 0.0718 µM); under setting [2], 0.2 µg/mL (≈ 0.342 µM). As for `CC[C@@]1(O)C[C@H](O[C@H]2C[C@H](N(C)Cc3ccccc3)[C@H](O)[C@H](C)O2)c2c(O)c3c(c(O)c2[C@H]1O)C(=O)c1cccc(O)c1C3=O` [compound 9, 7-O-(3'-N-Benzyl-3'-N-methyl-α-L-daunosaminyl)-β-rhodomycinone], the IC50 reads like this: under setting [3], 0.028 µg/mL (≈ 0.0452 µM); under setting [4], 0.32 µg/mL (≈ 0.516 µM). `CCN(C)[C@H]1C[C@H](O[C@H]2C[C@](O)(CC)[C@H](O)c3c(O)c4c(c(O)c32)C(=O)c2c(O)cccc2C4=O)O[C@@H](C)[C@H]1O` [compound 11]: the IC50 runs as follows: under setting [3], 0.007 µg/mL (≈ 0.0126 µM); under setting [4], 0.08 µg/mL (≈ 0.143 µM).

Take `CCCN(C)[C@H]1C[C@H](O[C@H]2C[C@](O)(CC)[C@H](O)c3c(O)c4c(c(O)c32)C(=O)c2c(O)cccc2C4=O)O[C@@H](C)[C@H]1O` [compound 12, 7-O-(3'-N-Methyl-3'-N-propyl-α-L-daunosaminyl)-β-rhodomycinone]: the IC50 under setting [3] came to 0.026 µg/mL (≈ 0.0455 µM) and the IC50 under setting [4] came out at 0.1 µg/mL (≈ 0.175 µM). In the same order, the values of `CCCCN(C)[C@H]1C[C@H](O[C@H]2C[C@](O)(CC)[C@H](O)c3c(O)c4c(c(O)c32)C(=O)c2c(O)cccc2C4=O)O[C@@H](C)[C@H]1O` [compound 13, 7-O-(3'-N-Butyl-3'-N-methyl-α-L-daunosaminyl)-β-rhodomycinone] are 0.018 µg/mL (≈ 0.0307 µM) and 0.125 µg/mL (≈ 0.213 µM). In the same order, the values of `CC[C@@]1(O)C[C@H](O[C@H]2C[C@H](N(C)C(C)=O)[C@H](O)[C@H](C)O2)c2c(O)c3c(c(O)c2[C@H]1C(=O)OC)C(=O)c1c(O)ccc(O)c1C3=O` [compound 14, 7-O-(3'-N-Acetyl-3'-N-methyl-α-L-daunosaminyl)-ε-isorhodomycinone] are 0.5 µg/mL (≈ 0.794 µM) and greater than 1 µg/mL.

Take `CC[C@@]1(O)C[C@H](O[C@H]2C[C@H](NC)[C@H](O)[C@H](C)O2)c2c(O)c3c(c(O)c2[C@H]1O[C@H]1C[C@H](NC)[C@H](O)[C@H](C)O1)C(=O)c1cccc(O)c1C3=O` [compound 15, 7,10-O-bis-(3'-N-Methyl-α-L-daunosaminyl)-β-rhodomycinone]: the IC50 is, setting by setting: under setting [3], greater than 1 µg/mL; under setting [4], greater than 1 µg/mL.

For `CCCCCN(C)[C@H]1C[C@H](O[C@H]2C[C@](O)(CC)[C@H](O)c3c(O)c4c(c(O)c32)C(=O)c2c(O)cccc2C4=O)O[C@@H](C)[C@H]1O` [compound 18, 7-O-(3'-N-Methyl-3'-N-pentyl-α-L-daunosaminyl)-β-rhodomycinone], the IC50 is, setting by setting: under setting [3], 0.075 µg/mL (≈ 0.125 µM); under setting [4], 0.48 µg/mL (≈ 0.8 µM). The matching figures for `CCCCCCN(C)[C@H]1C[C@H](O[C@H]2C[C@](O)(CC)[C@H](O)c3c(O)c4c(c(O)c32)C(=O)c2c(O)cccc2C4=O)O[C@@H](C)[C@H]1O` [compound 19, 7-O-(3'-N-Hexyl-3'-N-methyl-α-L-daunosaminyl)-β-rhodomycinone]: 0.13 µg/mL (≈ 0.212 µM) and 1.2 µg/mL (≈ 1.96 µM). For the compound `CCCCCCCN(C)[C@H]1C[C@H](O[C@H]2C[C@](O)(CC)[C@H](O)c3c(O)c4c(c(O)c32)C(=O)c2c(O)cccc2C4=O)O[C@@H](C)[C@H]1O` [compound 20, 7-O-(3'-N-Heptyl-3'-N-methyl-α-L-daunosaminyl)-β-rhodomycinone], the IC50 under setting [3] was 0.38 µg/mL (≈ 0.605 µM) and the IC50 under setting [4] worked out at 1.9 µg/mL (≈ 3.03 µM).

Take `CCCCCCCCN(C)[C@H]1C[C@H](O[C@H]2C[C@](O)(CC)[C@H](O)c3c(O)c4c(c(O)c32)C(=O)c2c(O)cccc2C4=O)O[C@@H](C)[C@H]1O` [compound 21, 7-O-(3'-N-Octyl-3'-N-methyl-α-L-daunosaminyl)-β-rhodomycinone]: the concentration for half-maximal inhibition (IC50) runs as follows: under setting [3], 0.46 µg/mL (≈ 0.717 µM); under setting [4], 2.8 µg/mL (≈ 4.36 µM). In the same order, the values of `CC[C@@]1(O)C[C@H](O[C@H]2C[C@H](N(C)Cc3ccc(Cl)cc3)[C@H](O)[C@H](C)O2)c2c(O)c3c(c(O)c2[C@H]1O)C(=O)c1cccc(O)c1C3=O` [compound 22, 7-O-(3'-N-(4-Chlorobenzyl)-3'-N-methyl-α-L-daunosaminyl)-β-rhodomycinone] are 0.026 µg/mL (≈ 0.0397 µM) and 0.95 µg/mL (≈ 1.45 µM). The matching figures for `CC[C@@]1(O)C[C@H](O[C@H]2C[C@H](N(C)Cc3ccc(Br)cc3)[C@H](O)[C@H](C)O2)c2c(O)c3c(c(O)c2[C@H]1O)C(=O)c1cccc(O)c1C3=O` [compound 23, 7-O-(3'-N-(4-Bromobenzyl)-3'-N-methyl-α-L-daunosaminyl)-β-rhodomycinone]: 0.08 µg/mL (≈ 0.115 µM) and greater than 1 µg/mL. Turning to `CC[C@@]1(O)C[C@H](O[C@H]2C[C@H](N(C)Cc3ccc([N+](=O)[O-])cc3)[C@H](O)[C@H](C)O2)c2c(O)c3c(c(O)c2[C@H]1O)C(=O)c1cccc(O)c1C3=O` [compound 24, 7-O-(3'-N-(4-Nitrobenzyl)-3'-N-methyl-α-L-daunosaminyl)-β-rhodomycinone], the IC50 runs as follows: under setting [1], 0.16 µg/mL (≈ 0.241 µM); under setting [2], 2.5 µg/mL (≈ 3.76 µM).

As to `CC[C@@]1(O)C[C@H](O[C@H]2C[C@H](N(C)Cc3ccc(C#N)cc3)[C@H](O)[C@H](C)O2)c2c(O)c3c(c(O)c2[C@H]1O)C(=O)c1cccc(O)c1C3=O` [compound 25, 7-O-(3'-N-(4-Cyanobenzyl)-3'-N-methyl-α-L-daunosaminyl)-β-rhodomycinone], the IC50 under setting [1] came out at 0.11 µg/mL (≈ 0.171 µM) and the IC50 under setting [2] was greater than 1 µg/mL.
